This assay has as its target T1, BCL-XL (Homo sapiens, UniProt Q07817).
T1 construct: endogenous in cells; host or cells: MOLT-4
Kind of assay: BCL-XL degradation assay, western blot in MOLT-4 cells, 16 h. The conditions noted are these: western blot, MOLT-4 cells, 16 h; for Dmax: read-out: Bcl-xL WB in MOLT-4 degradation 16 h: Average Dmax %; for DC50: read-out: Bcl-xL WB in MOLT-4 degradation 16 h: Mean external-Abs DC50. The format is cell-based. On the procedure: Compounds treatment: compounds were reconstituted in DMSO to make a stock concentration of 10 mM. MOLT-4 cells were maintained in RPMI-1640+10% FBS+1% Penicillin-Streptomycin. Cells were seeded into 6-well plates in 2 mL at the seeding density of 2e6 cells/mL. Compounds were added to the cells to a final concentration ranging 0.02-10 μM. After 16 hr incubation at 37° C., in a CO2 incubator, cells were collected in an Eppendorf tube and centrifuged at 200×g for 5 minutes, the supernatant removed and pellets washed with ice-cold PBS, centrifuged and supernatant removed again. Then. 50 μl of pre-chilled RIPA lysis buffer (Boston BioProducts. BP-115D) with protease and phosphatase inhibitors (Roche Applied Science. #04906837001 and #04693116001) was added into cell pellet to lyze the cells for 20 minutes under 4° C. Cell lysates were spin at 13000 rpm for 10 minutes. Supernatants were collected and protein concentration was measured by BCA assay kit (Solarbio. PC0020-500) following the manufacturer's protocol. Samples' final protein concentration was adjusted to 3.75 μg/uL with the RIPA lysis buffer based on BCA assay results and 4× loading buffer (Invitrogen. NP0007) was added into the samples and samples were heated to 85° C., for 10 min and then let cool at RT. Samples were centrifuged at 13000 rpm for 10 min and then loaded into a 26-well NuPAGER. Novex 4-12% Bis-Tris Midi Gel (Invitrogen. WG1403BOX) and run in NuPAGER MOPS SDS Running Buffer (Invitrogen. NP0001) for 180 minutes at 70 V into a XCell4 SureLock™ Midi-Cell Runner (Invitrogen. WR0100). Gel were transferred using the Invitrogen iBlot gel transfer device (Invitrogen. IB21001) and the nitrocellulose transfer stacks (Invitrogen, IB23001) with Program PO for 9 minutes. The membrane was then blocked with 5% bovin serum albumin for 1 hr at RT, then incubated with primary antibodies diluted in blocking buffer (LI-COR. 927-60001) and shake at 4° C., overnight. The primary antibodies were anti-BCL-xL antibody (CST. 2762:1:1000), anti-beta-actin (CST. 3700; 1:5000) and anti-GAPDH (CST. 97166:1:5000). Membranes were then washed three times with PBST for 15 minutes at RT. Secondary antibodies IR-Dye 680 CW Goat anti Mouse IgG (LI-COR. 926-68070) and IR-Dye 800 CW Goat anti Rabbit IgG (LI-COR. 926-32211) were diluted at a ratio of 1:10000 into PBST and membranes incubated for 1 hour at RT. Membranes were then washed three times with PBST for 15 minutes at RT. The western blot images were obtained using Odyssey Imaging System and quantified using Image Studio Lite Ver 5.2 software.
The letter codes for BCL-XL DC50 include: A (<0.01 μM); B (0.01-0.1 μM); C (>[…]); D (>0.5-1.0 μM); and E (>1.0 μM). The letter codes for Dmax % include A (>75%); B (50 to 75%); C (<50%).
On the technique in general: Immunoblotting shows a protein as a band on a membrane.

Where only a bound is given, the exact number is not on record here.

By Dmax is commonly meant the largest share of the target that was removed. As a reminder, the DC50 is the midpoint of the concentration-degradation curve.

T1 sequence (Q07817 whole entry): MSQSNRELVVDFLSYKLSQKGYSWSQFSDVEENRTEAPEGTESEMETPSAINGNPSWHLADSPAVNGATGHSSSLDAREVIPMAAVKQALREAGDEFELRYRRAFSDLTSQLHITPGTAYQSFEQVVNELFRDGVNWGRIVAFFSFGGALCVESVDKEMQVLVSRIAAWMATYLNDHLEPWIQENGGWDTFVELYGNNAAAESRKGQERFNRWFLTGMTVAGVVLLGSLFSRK

Take `Cc1ncsc1-c1ccc([C@H](C)NC(=O)[C@@H]2C[C@@H](O)CN2C(=O)[C@@H](NC(=O)CCCCCC(=O)N2CCN(CCCC3(Cn4ncc(-c5ccc(N6CCc7cccc(C(=O)Nc8nc9ccccc9s8)c7C6)nc5C(=O)O)c4C)CCCCC3)CC2)C(C)(C)C)cc1` [I-131]: the greatest degradation seen (Dmax) lay within 50 to 75% and the DC50 was 100 to 500 nM.

`Cc1cc(N(CCCC(=O)N[C@H](C(=O)N2C[C@H](O)C[C@H]2C(=O)N[C@@H](C)c2ccc(-c3scnc3C)cc2)C(C)(C)C)c2ccc(-c3cnn(CC4CCCCC4)c3C)c(C(=O)O)n2)nnc1Nc1nc2ccccc2s1` [I-113]: the greatest degradation seen (Dmax) was below 50% and the half-maximal degradation concentration (DC50) is above 1000 nM.

`Cc1ncsc1-c1ccc([C@H](C)NC(=O)[C@@H]2C[C@@H](O)CN2C(=O)[C@@H](NC(=O)CCCN(C)C(=O)CCCCCc2ccc(N3CCc4cccc(C(=O)Nc5nc6ccccc6s5)c4C3)nc2C(=O)O)C(C)(C)C)cc1` [I-36, 6-(8-(benzo[d]thiazol-2-ylcarbamoyl)-3,4-dihydroisoquinolin-2 (1H)-yl)-3-(6-((4-(((S)-1-((2S,4R)-4-hydroxy-2-(((S)-1-(4-(4-methylthiazol-5-yl)phenyl)ethyl)carbamoyl)pyrrolidin-1-yl)-3,3-dimethyl-1-oxobutan-2-yl)amino)-4-oxobutyl)(methyl)amino)-6-oxohexyl)picolinic acid]: the Dmax is below 50% and the DC50 is above 1000 nM.

With `Cc1ncsc1-c1ccc([C@H](C)NC(=O)[C@@H]2C[C@@H](O)CN2C(=O)[C@@H](NC(=O)CCc2ccc(S(=O)(=O)NC(=O)c3ccc(N4CCN(CC5=C(c6ccc(Cl)cc6)CCC(C)(C)C5)CC4)cc3)cc2)C(C)(C)C)cc1` [I-124], the Dmax is below 50% and the DC50 was above 1000 nM.

Regarding `Cc1ncsc1-c1ccc([C@H](C)NC(=O)[C@@H]2C[C@@H](O)CN2C(=O)[C@@H](NC(=O)N2CC3(CCC(C(=O)N4CCN(CC[C@H](CSc5ccccc5)Nc5ccc(S(=O)(=O)NC(=O)c6ccc(N7CCN(CC8=C(c9ccc(Cl)cc9)CCC(C)(C)C8)CC7)cc6)cc5S(=O)(=O)C(F)(F)F)CC4)CC3)C2)C(C)(C)C)cc1` [I-125], the Dmax is below 50% and the DC50 was above 1000 nM.

For the compound `Cc1ncsc1-c1ccc([C@H](C)NC(=O)[C@@H]2C[C@@H](O)CN2C(=O)[C@@H](NC(=O)CCCCCCCC(=O)N(C)CCCc2cccc(F)c2OCCCc2sc(N3CCc4cccc(C(=O)Nc5nc6ccccc6s5)c4C3)nc2C(=O)O)C(C)(C)C)cc1` [I-11], the Dmax is above 75% and the DC50 lay in the range of 100 to 500 nM.

As for `Cc1ncsc1-c1ccc(CNC(=O)[C@@H]2C[C@@H](O)CN2C(=O)[C@@H](NC(=O)C2(F)CC2)C(C)(C)C)c(O[C@H]2CC[C@H](C(=O)N3CCN(CC[C@H](CSc4ccccc4)Nc4ccc(S(=O)(=O)NC(=O)c5ccc(N6CCN(CC7=C(c8ccc(Cl)cc8)CCC(C)(C)C7)CC6)cc5)cc4S(=O)(=O)C(F)(F)F)CC3)CC2)c1` [I-89], the Dmax is below 50% and the DC50 was above 1000 nM.

With `Cc1ncsc1-c1ccc([C@H](C)NC(=O)[C@@H]2C[C@@H](O)CN2C(=O)[C@@H](NC(=O)CCCNC(=O)CCC2(Cn3ncc(-c4ccc(N5CCc6cccc(C(=O)Nc7nc8ccccc8s7)c6C5)nc4C(=O)O)c3C)CCCCC2)C(C)(C)C)cc1` [I-129], the Dmax was above 75% and the half-maximal degradation concentration (DC50) lay in the range of 100 to 500 nM.

As for `Cc1ncsc1-c1ccc([C@H](C)NC(=O)[C@@H]2C[C@@H](O)CN2C(=O)[C@@H](NC(=O)CCCC(=O)N2CCN(CCCC3(Cn4ncc(-c5ccc(N6CCc7cccc(C(=O)Nc8nc9ccccc9s8)c7C6)nc5C(=O)O)c4C)CCCCC3)CC2)C(C)(C)C)cc1` [I-130], the Dmax was in the range of 50 to 75% and the DC50 is 100 to 500 nM.

For the compound `Cc1ncsc1-c1ccc(CNC(=O)[C@@H]2C[C@@H](O)CN2C(=O)[C@@H](NC(=O)C2(F)CC2)C(C)(C)C)c(OCCCC(=O)N(C)CC#Cc2ccc(OCCCc3sc(N4CCc5cccc(C(=O)Nc6nc7ccccc7s6)c5C4)nc3C(=O)O)c(F)c2)c1` [I-6], the Dmax is above 75% and the DC50 was in the range of 100 to 500 nM.

As to `Cc1ncsc1-c1ccc([C@H](C)NC(=O)[C@@H]2C[C@@H](O)CN2C(=O)[C@@H](NC(=O)CCCCCC(=O)N(C)CC#Cc2ccc(OCCCc3sc(N4CCc5cccc(C(=O)Nc6nc7ccccc7s6)c5C4)nc3C(=O)O)c(F)c2)C(C)(C)C)cc1` [I-3], the maximal degradation (Dmax) is above 75% and the DC50 lay within 10 to 100 nM.

As to `Cc1ncsc1-c1ccc([C@H](C)NC(=O)[C@@H]2C[C@@H](O)CN2C(=O)[C@@H](NC(=O)CCCCCC(=O)N(C)CCCc2cccc(F)c2OCCCc2sc(N3CCc4cccc(C(=O)Nc5nc6ccccc6s5)c4C3)nc2C(=O)O)C(C)(C)C)cc1` [I-10], the Dmax is above 75% and the DC50 was 100 to 500 nM.

Consider `Cc1ncsc1-c1ccc([C@H](C)NC(=O)[C@@H]2C[C@@H](O)CN2C(=O)[C@@H](NC(=O)N2CCC3(CCC(C(=O)N4CCN(CC[C@H](CSc5ccccc5)Nc5ccc(S(=O)(=O)NC(=O)c6ccc(N7CCN(CC8=C(c9ccc(Cl)cc9)CCC(C)(C)C8)CC7)cc6)cc5S(=O)(=O)C(F)(F)F)CC4)CC3)CC2)C(C)(C)C)cc1` [I-126], for which the Dmax is below 50% and the DC50 was above 1000 nM.

As to `Cc1cc(N(CCN(C)C(=O)CCCCCOc2cc(-c3scnc3C)ccc2CNC(=O)[C@@H]2C[C@@H](O)CN2C(=O)[C@@H](NC(=O)C2(F)CC2)C(C)(C)C)c2ccc(-c3cnn(CC4CCCCC4)c3C)c(C(=O)O)n2)nnc1Nc1nc2ccccc2s1` [I-103], the Dmax was below 50% and the DC50 is above 1000 nM.

As to `Cc1ncsc1-c1ccc(CNC(=O)[C@@H]2C[C@@H](O)CN2C(=O)[C@@H](NC(=O)C2(F)CC2)C(C)(C)C)c(OCCCCCC(=O)N(C)CC#Cc2cccc(F)c2OCCCc2sc(N3CCc4cccc(C(=O)Nc5nc6ccccc6s5)c4C3)nc2C(=O)O)c1` [I-19], the Dmax is below 50% and the DC50 was above 1000 nM.

As for `Cc1ncsc1-c1ccc([C@H](C)NC(=O)[C@@H]2C[C@@H](O)CN2C(=O)[C@@H](NC(=O)CCCC(=O)N(C)CC#Cc2ccc(OCCCc3sc(N4CCc5cccc(C(=O)Nc6nc7ccccc7s6)c5C4)nc3C(=O)O)c(F)c2)C(C)(C)C)cc1` [I-2], the Dmax was above 75% and the 50% degradation concentration (DC50) fell in the range of 100 to 500 nM.

Turning to `Cc1ncsc1-c1ccc([C@H](C)NC(=O)[C@@H]2C[C@@H](O)CN2C(=O)[C@@H](NC(=O)CCCCCS(=O)(=O)NC(=O)c2nc(N3CCc4cccc(C(=O)Nc5nc6ccccc6s5)c4C3)sc2CCCOc2ccc(C#CCN(C)C)cc2F)C(C)(C)C)cc1` [I-26], the Dmax is above 75% and the DC50 was below 10 nM.

On to `CC1(C)CCC(c2ccc(Cl)cc2)=C(CN2CCN(c3ccc(C(=O)NS(=O)(=O)c4ccc(N[C@H](CCN5CCN(C(=O)COc6ccccc6CNC(=O)[C@@H]6C[C@@H](O)CN6C(=O)[C@@H](NC(=O)C6(F)CC6)C(C)(C)C)CC5)CSc5ccccc5)c(S(=O)(=O)C(F)(F)F)c4)cc3)CC2)C1` [I-97], for which the greatest degradation seen (Dmax) is below 50% and the DC50 is above 1000 nM.

Turning to `Cc1ncsc1-c1ccc(CNC(=O)[C@@H]2C[C@@H](O)CN2C(=O)[C@@H](NC(=O)C2(F)CC2)C(C)(C)C)c(OCCCC(=O)N(C)CC#Cc2cccc(F)c2OCCCc2sc(N3CCc4cccc(C(=O)Nc5nc6ccccc6s5)c4C3)nc2C(=O)O)c1` [I-18], the Dmax lay in the range of 50 to 75% and the DC50 is above 1000 nM.

Regarding `Cc1ncsc1-c1ccc(CNC(=O)[C@@H]2C[C@@H](O)CN2C(=O)[C@@H](NC(=O)C2(F)CC2)C(C)(C)C)c(OCCCC(=O)N(C)CCCc2cccc(F)c2OCCCc2sc(N3CCc4cccc(C(=O)Nc5nc6ccccc6s5)c4C3)nc2C(=O)O)c1` [I-12], the Dmax fell in the range of 50 to 75% and the DC50 fell in the range of 500 to 1000 nM.

Take `Cc1ncsc1-c1ccc([C@H](C)NC(=O)[C@@H]2C[C@@H](O)CN2C(=O)[C@@H](NC(=O)CCCCCC(=O)N2CCN(CC[C@@H](CSc3ccccc3)Nc3ccc(S(=O)(=O)NC(=O)c4ccc(N5CCC(C)(C)CC5)cc4)cc3S(=O)(=O)C(F)(F)F)CC2)C(C)(C)C)cc1` [I-393]: the Dmax was below 50% and the DC50 is above 1000 nM.

Values taken from patent US20250197387A1, “BCL-XL DEGRADERS AND USES THEREOF” (Kymera Therapeutics, Inc., priority 2021, published 2025).
